From ChEMBL document CHEMBL3352750, “Novel indole based NNRTIs with improved potency against wild type and resistant HIV” (Bioorg Med Chem Lett, 2014)
Active and inactive are the calls of the source. The calls are words filed in the database; no cut-off is given here.

Tests used:
[1] = system: Human immunodeficiency virus 1; experiment: Antiviral activity against HIV1 infected in HEK293T cells by p24 ELISA based phenotypic assay; format: functional, organism-based; details: Human immunodeficiency virus 1, HEK-293T
[2] = Cytotoxicity against HEK293T cells; format: cell-based, HEK-293T; details: human
[3] = system: Human immunodeficiency virus 1; experiment: Antiviral activity against HIV1 containing reverse transcriptase G190A mutant infected in HEK293T cells by p24 ELISA based phenotypic assay; format: functional, organism-based; details: HEK-293T
[4] = system: Human immunodeficiency virus 1; experiment: Antiviral activity against HIV1 containing reverse transcriptase V106M mutant infected in HEK293T cells by p24 ELISA based phenotypic assay; format: functional, organism-based; details: HEK-293T
[5] = system: Human immunodeficiency virus 1; experiment: Antiviral activity against HIV1 containing reverse transcriptase Y181C mutant infected in HEK293T cells by p24 ELISA based phenotypic assay; format: functional, organism-based; details: HEK-293T
[6] = system: Human immunodeficiency virus 1; experiment: Antiviral activity against HIV1 containing reverse transcriptase K103N mutant infected in HEK293T cells by p24 ELISA based phenotypic assay; format: functional, organism-based; details: HEK-293T
[7] = system: Human immunodeficiency virus 1; experiment: Antiviral activity against HIV1 containing reverse transcriptase Y181I mutant infected in HEK293T cells by p24 ELISA based phenotypic assay; format: functional, organism-based; details: HEK-293T
[8] = system: Human immunodeficiency virus 1; experiment: Antiviral activity against HIV1 containing reverse transcriptase M230I mutant infected in HEK293T cells by p24 ELISA based phenotypic assay; format: functional, organism-based; details: HEK-293T
[9] = system: Human immunodeficiency virus 1; experiment: Antiviral activity against HIV1 containing reverse transcriptase E138Q mutant infected in HEK293T cells by p24 ELISA based phenotypic assay; format: functional, organism-based; details: HEK-293T
[10] = system: Human immunodeficiency virus 1; experiment: Antiviral activity against HIV1 containing reverse transcriptase K101P mutant infected in HEK293T cells by p24 ELISA based phenotypic assay; format: functional, organism-based; details: HEK-293T
[11] = system: Human immunodeficiency virus 1; experiment: Antiviral activity against HIV1; format: functional, organism-based

IC50 [1] | SMILES | CC50 [2] | further results
300 nM | COC(c1cc(C)cc(C)c1)c1c[nH]c2ccc(Cl)cc12 (centres undefined) | 67700 nM | 
30 nM | CCOC(=O)c1[nH]c2ccc(Cl)cc2c1C(OCC)c1ccccc1 (centres undefined) | 22800 nM | 
2430 nM | COC(c1ccccc1)c1c[nH]c2ccc(Cl)cc12 (centres undefined) | 67000 nM | 
1200 nM | COC(c1ccccc1)c1c(S(=O)(=O)C(F)(F)F)[nH]c2ccc(Cl)cc12 (centres undefined) | 24200 nM | 
4400 nM | NNC(=O)c1[nH]c2ccc(Cl)cc2c1C1(c2ccccc2)CC1 |  | 
209 nM | O=C(NCCO)c1[nH]c2ccc(Cl)cc2c1C1(c2ccccc2)CC1 |  | 
712 nM | O=C(OCCO)c1[nH]c2ccc(Cl)cc2c1C1(c2ccccc2)CC1 |  | 
 | CCOC(=O)c1[nH]c2ccc(Cl)cc2c1C1(c2cccs2)CC1 |  | IC50 [11]: 65 nM
1150 nM | CCOC(=O)c1[nH]c2ccc(Cl)cc2c1C(O)c1ccccc1 (centres undefined) | 22700 nM | 
4800 nM | CCOC(=O)c1[nH]c2ccc(Cl)cc2c1C1(c2ccccc2)CC1 |  | IC50 [11]: 85 nM

SMILES | IC50 [1] | CC50 [2] | further results
CCOC(=O)c1[nH]c2ccc(Cl)cc2c1C(OC)c1ccccc1 (centres undefined) | 20 nM | 25300 nM | inhibition [3]: Active; inhibition [4]: inactive; inhibition [5]: inactive; inhibition [6]: inactive
CCOC(=O)c1[nH]c2ccc(Cl)cc2c1C(OC)c1cc(C)cc(C)c1 (centres undefined) | 30 nM | 36500 nM | inhibition [3]: Active; inhibition [7]: Active; inhibition [4]: Active; inhibition [5]: inactive; inhibition [8]: Active; inhibition [9]: Active; inhibition [10]: Active; inhibition [6]: Active
Cc1ccnc2c1NC(=O)c1cccnc1N2C1CC1 [NEVIRAPINE] | 120 nM |  | IC50 [11]: 100 nM
